Key:
B16 [1] = experiment: Antitumor activity against mouse B16 cells allografted in ICR mouse assessed as tumor growth inhibition at 30 mg/kg, ip administered 7 days post inoculation measured at day 25 of tumor transplantation; type: functional; conditions: route intraperitoneal
H22 [2] = experiment: Antitumor activity against […] H22 cells […] in ICR mouse assessed as tumor growth inhibition at 30 mg/kg, ip administered 7 days post inoculation measured at day 25 of tumor transplantation; type: functional; conditions: route intraperitoneal
[3] = Antiproliferative activity against human SF763 cells after 72 hrs by MTT assay; type: functional, cell-based; conditions: SF763, 72 h
[4] = Antiproliferative activity against human HL60 cells after 72 hrs by MTT assay; type: functional, cell-based; conditions: HL-60, 72 h
B16 [5] = experiment: Antiproliferative activity against mouse B16 cells after 72 hrs by MTT assay; type: functional, cell-based; conditions: B16, 72 h
HeLa = experiment: Antiproliferative activity against human HeLa cells after 72 hrs by MTT assay; type: functional, cell-based
[6] = Antiproliferative activity against human Bel7402 cells after 72 hrs by MTT assay; type: functional, cell-based; conditions: Bel-7402, 72 h
H22 [7] = experiment: Antitumor activity against human H22 cells xenografted in ICR mouse assessed as tumor growth inhibition at 30 mg/kg, iv administered 7 days post inoculation measured at day 25 of tumor transplantation; conditions: read-out: INH
B16 [8] = experiment: Antitumor activity against mouse B16 cells allografted in ICR mouse assessed as tumor growth inhibition at 30 mg/kg, iv administered 7 days post inoculation measured at day 25 of tumor transplantation; type: functional

| SMILES | inhibition in vivo at 30 mg/kg (B16 [1]) | inhibition in vivo at 30 mg/kg (H22 [2]) | IC50 [3] | IC50 [4] | IC50 (B16 [5]) | IC50 (HeLa) | IC50 [6] | inhibition in vivo at 30 mg/kg (H22 [7]) | inhibition in vivo at 30 mg/kg (B16 [8]) |
| --- | --- | --- | --- | --- | --- | --- | --- | --- | --- |
| C=C(C)[C@@H]1CC[C@]2(C(=O)O)CC[C@]3(C)[C@H](CC[C@@H]4[C@@]5(C)CC[C@H](O)[C@@](C)(CO)[C@@H]5CC[C@]43C)[C@@H]12 | 32.4% | 27.8% | – | – | – | – | – | – | – |
| C=C(C)[C@@H]1CC[C@]2(C(=O)NCCN)CC[C@]3(C)[C@H](CC[C@@H]4[C@@]5(C)Cc6c[nH]nc6[C@@](C)(COC(C)=O)[C@@H]5CC[C@]43C)[C@@H]12 | 58.9% | 51.2% | 6.13 µM | 8.04 µM | 5.58 µM | 8.97 µM | 8.12 µM | – | – |
| O=P1(N(CCCl)CCCl)NCCCO1 (stereo unspecified) [CYCLOPHOSPHAMIDE ANHYDROUS] | – | – | – | – | – | – | – | 53.7% | – |
| O=c1[nH]cc(F)c(=O)[nH]1 [FLUOROURACIL] | – | – | 9.34 µM | 10.5 µM | 10.5 µM | 9.09 µM | 11.8 µM | – | 70.3% |

Reference: ChEMBL document CHEMBL3352575, “Synthesis, in vitro and in vivo antitumor activity of pyrazole-fused 23-hydroxybetulinic acid derivatives” (Bioorg Med Chem Lett, 2015)
